Results published in BindingDB's records for doi:10.1016/s0960-894x(01)00477-2 (Section De Chimie De L'Universit&#163, 2001).

Columns and labels:
[1] = Inhibitory activity towards Alpha-mannosidase from jack bean
[2] = Inhibitory activity towards Beta-Glucosidase from Almond
[3] = as above; remark: listed apart in the source
[4] = Inhibitory activity towards Alpha-mannosidase from Jack bean
[5] = as above; remark: listed apart in the source
[6] = Inhibitory activity towards Beta-Glucosidase from Almond; remark: listed apart in the source
[7] = Inhibitory activity towards Alpha-mannosidase from Almond
[8] = Inhibitory activity towards Beta-Glucosidase from Almond; remark: listed apart in the source
[9] = Inhibitory activity towards Alpha-mannosidase from Almond; remark: listed apart in the source
[10] = as above; remark: listed apart in the source

SMILES	Ki [4] [µM]	IC50 [5] [µM]	IC50 [6] [µM]	also measured
OCC(O)[C@H]1NC[C@H](O)[C@@H]1O (stereo partly drawn)				IC50 [1]: 800 µM; Ki [2]: 53 µM; IC50 [3]: 120 µM
OC(O)CC1NCC(O)C1O (stereo not drawn) [2-(2,2-Dihydroxy-ethyl)-pyrrolidine-3,4-diol]	80	180		
OC1CNC(CNCc2ccccc2)C1O (stereo not drawn) [2-(Benzylamino-methyl)-pyrrolidine-3,4-diol]			370	
NCC1NCC(O)C1O (stereo not drawn) [2-Aminomethyl-pyrrolidine-3,4-diol]	53	170		IC50 [7]: 1000 µM
OC1CNC(CNC2CCCC2)C1O (stereo not drawn) [2-Cyclopentylaminomethyl-pyrrolidine-3,4-diol]			500	IC50 [1]: 560 µM
CC(NCC1NCC(O)C1O)C(O)(c1ccccc1)c1ccccc1 (stereo not drawn) [2-[(2-Hydroxy-1-methyl-2,2-diphenyl-ethylamino)-methyl]-pyrrolidine-3,4-diol]	170		550	IC50 [1]: 440 µM
C[C@@H](NCC1NCC(O)C1O)c1ccccc1 (stereo partly drawn) [2-[((R)-1-Phenyl-ethylamino)-methyl]-pyrrolidine-3,4-diol]	170	440		
OC1CNC(CNCC2CCN(Cc3ccccc3)CC2)C1O (stereo not drawn) [2-{[(1-Benzyl-piperidin-4-ylmethyl)-amino]-methyl}-pyrrolidine-3,4-diol]		700	430	
OC1CNC(CNCc2ccco2)C1O (stereo not drawn) [2-{[(Furan-2-ylmethyl)-amino]-methyl}-pyrrolidine-3,4-diol]			140	Ki [8]: 12 µM
OC1CNC(CNCn2ccnc2)C1O (stereo not drawn) [2-{[(Imidazol-1-ylmethyl)-amino]-methyl}-pyrrolidine-3,4-diol]		700	420	IC50 [7]: 570 µM
OC1CNC(CNCc2cccs2)C1O (stereo not drawn) [2-{[(Thiophen-2-ylmethyl)-amino]-methyl}-pyrrolidine-3,4-diol]	26			Ki [9]: 98 µM; IC50 [10]: 350 µM
CC(=O)N(Cc1ccccc1)CC1NCC(O)C1O (stereo not drawn) [N-Benzyl-N-(3,4-dihydroxy-pyrrolidin-2-ylmethyl)-acetamide]			430	Ki [2]: 220 µM
